Values of other authors, collected in patent US11208393B2, “Methods for extraction, processing, and purification of a selected family of target compounds from cannabis” (Nectar Health Sciences Inc., priority 2019, dated 2021).

Conditions: of the protonated amine (ammonium ion)

Structure (SMILES)	pKa
CN(C)CCO [(CH3)2NHCH2OH^+, dimethylethanolamine]	9.3
C1CN2CCN1CC2 [DABCO, 1,4-diazabicyclo[2.2.2]octane]	8.9
CN(C)CCN(C)C [TMEDA, tetramethylethylenediamine]	9.0
